Data published in patent US8034579B2, “Proteins with enhanced functionality and methods of making novel proteins using circular permutation” (Emory University, priority 2005, dated 2011).

Key:
Assay type in all cases: biochemical
[1] = biological target: T1, Candida antarctica lipase B (CALB), wild type, SEQ ID NO: 2, L1/P317 (Moesziomyces antarcticus, UniProt P41365); assay: Initial rate of hydrolysis of DiFMU octanoate, wild type; details: kcat/KM (variant)/kcat/KM (wild type)
T1 sequence (P41365 26-342): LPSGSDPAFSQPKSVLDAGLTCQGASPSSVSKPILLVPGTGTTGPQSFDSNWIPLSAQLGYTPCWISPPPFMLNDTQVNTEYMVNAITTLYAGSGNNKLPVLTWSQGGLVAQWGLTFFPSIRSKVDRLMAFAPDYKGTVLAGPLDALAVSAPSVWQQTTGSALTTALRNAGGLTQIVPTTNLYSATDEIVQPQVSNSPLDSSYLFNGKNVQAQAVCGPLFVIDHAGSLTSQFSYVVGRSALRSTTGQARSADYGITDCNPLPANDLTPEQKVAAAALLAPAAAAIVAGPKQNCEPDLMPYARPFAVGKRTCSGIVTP
Description: (§1) Kinetic analysis of protein variants: To examine the impact of circular permutation on catalysis eleven functional CALB variants with termini in or near the active site were selected for detailed kinetic characterization. The locations of the termini in these variants are shown on the structure of CALB in FIG. 6; the numbers correspond to the amino acid residue of the new terminus. Following overexpression in P. pastoris, the selected circularly permuted proteins were purified to homogeneity. The catalytic performance of these variants was determined in activity assays with two standard lipase substrates, measuring the initial rates of hydrolysis of the chromogenic substrate p-nitrophenol butyrate (pNB) and the fluorogenic substrate 6,8-difluoro-4-methylumbelliferyl (DiFMU) octanoate. […]
(§2) Lipase activity was determined by measuring the initial hydrolysis rate of p-NB and DiFMU octanoate at room temperature on a Synergy-HT microtiterplate reader (Bio-Tek Instruments, Winooski, Vt.). Stock solutions of p-NB (200 mM) and DiFMU octanoate (3 mM) were prepared in DMSO. p-NB hydrolysis over a substrate range of 0-1.6 mM was measured in 50 mM K-phosphate buffer (pH 7.5) at 400 nm ( ? for p-NB=13260 M^1 cm^−1) as described in Bender, M. L. et al., J Am Chem Soc 1968, 90, (1), 201-7, which is hereby incorporated by reference. […]

[2] = biological target: T2, Candida antarctica lipase B (CALB) circularly permuted variant cp144, His-L144/A141 (Moesziomyces antarcticus, UniProt P41365); assay: Initial rate of hydrolysis of DiFMU octanoate, cp144 (His)
T2 construct: secreted from Pichia pastoris GS115, purified
Description: (§3) Kinetic analysis of protein variants: To examine the impact of circular permutation on catalysis eleven functional CALB variants with termini in or near the active site were selected for detailed kinetic characterization. The locations of the termini in these variants are shown on the structure of CALB in FIG. 6; the numbers correspond to the amino acid residue of the new terminus. Following overexpression in P. pastoris, the selected circularly permuted proteins were purified to homogeneity. The catalytic performance of these variants was determined in activity assays with two standard lipase substrates, measuring the initial rates of hydrolysis of the chromogenic substrate p-nitrophenol butyrate (pNB) and the fluorogenic substrate 6,8-difluoro-4-methylumbelliferyl (DiFMU) octanoate.
(§4) The overexpression and purification of wild type CALB was performed as described in Rotticci-Mulder, J. C. et al., Protein Expr Purif 2001, 21, (3), 386-92, which is hereby incorporated by reference. The same protocol was adopted for the isolation of circular permutation variants of CALB. Briefly, pPIC9-ca/B was linearized by SacI digestion and electroporated into P. pastoris cells (GS115). Aliquots were plated on MD His^− plates and incubated at 30° C. Colonies appeared on plates after 2 days of incubation. A single colony was picked to inoculate 25 ml BMGY medium and the culture was incubated at 30° C. until it reached an OD600 of 2-6. The cells were harvested and resuspended in BMMY medium to an OD600 of 1. Protein expression was induced by addition of methanol to a final concentration of 0.5% (v/v) every 24 hours. After 4 days of incubation, the culture medium containing the lipase was separated from the cells by centrifugation (1500 g, 4° C., 10 min).
(§5) Lipase activity was determined by measuring the initial hydrolysis rate of p-NB and DiFMU octanoate at room temperature on a Synergy-HT microtiterplate reader (Bio-Tek Instruments, Winooski, Vt.). Stock solutions of p-NB (200 mM) and DiFMU octanoate (3 mM) were prepared in DMSO. p-NB hydrolysis over a substrate range of 0-1.6 mM was measured in 50 mM K-phosphate buffer (pH 7.5) at 400 nm ( ? for p-NB=13260 M^1 cm^−1) as described in Bender, M. L. et al., J Am Chem Soc 1968, 90, (1), 201-7, which is hereby incorporated by reference. The rate of DiFMU octanoate hydrolysis was determined by measuring the DiFMU formation over a substrate range of 0-12 μM in 50 mM K-phosphate buffer (pH 7.0) at an excitation/emission wavelength 360/460 nm. Kinetic constants were calculated by fitting the initial rates to the Michaelis-Menten equation using the Origin® software (version 7; OriginLab Corporation).

[3] = biological target: T3, Candida antarctica lipase B (CALB) circularly permuted variant cp268, P268/T267 (Moesziomyces antarcticus, UniProt P41365); assay: Initial rate of hydrolysis of DiFMU octanoate, cp268
T3 construct: Pichia pastoris, purified
Description: as §3, §4, §5
(§6) The present study included ten CALB variants. […]

[4] = biological target: T4, Candida antarctica lipase B (CALB) circularly permuted variant cp150, His-S150A/149 (Moesziomyces antarcticus, UniProt P41365); assay: Initial rate of hydrolysis of DiFMU octanoate, cp150 (His)
T4 construct: Pichia pastoris, purified
T4 sequence (P41365 26-342, stated change not applied): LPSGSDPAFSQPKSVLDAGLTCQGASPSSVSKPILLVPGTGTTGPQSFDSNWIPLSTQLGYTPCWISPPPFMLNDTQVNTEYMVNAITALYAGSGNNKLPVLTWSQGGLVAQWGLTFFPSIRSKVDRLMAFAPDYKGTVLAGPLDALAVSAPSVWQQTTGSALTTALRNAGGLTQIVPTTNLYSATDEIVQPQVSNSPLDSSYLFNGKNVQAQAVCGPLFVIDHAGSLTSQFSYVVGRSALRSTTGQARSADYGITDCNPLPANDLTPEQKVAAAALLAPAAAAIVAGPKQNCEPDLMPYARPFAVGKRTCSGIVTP
Description: as §3, §4, §5

[5] = biological target: T5, Candida antarctica lipase B (CALB) circularly permuted variant cp148, His-A148/L147 (Moesziomyces antarcticus, UniProt P41365); assay: Initial rate of hydrolysis of DiFMU octanoate, cp148 (His)
T5 construct: Pichia pastoris, purified
Description: as §3, §4, §5

[6] = biological target: T6, Candida antarctica lipase B (CALB) circularly permuted variant cp148a, A148/L147 (Moesziomyces antarcticus, UniProt P41365); assay: Initial rate of hydrolysis of DiFMU octanoate, cp148a
T6 construct: Pichia pastoris, purified
Description: as §3, §4
as §5, with “Corporation). […]” for “Corporation).”

[7] = biological target: T7, Candida antarctica lipase B (CALB) circularly permuted variant cp144a, L144/A141 (Moesziomyces antarcticus, UniProt P41365); assay: Initial rate of hydrolysis of DiFMU octanoate, cp144a
T7 construct: Pichia pastoris, purified
Description: as §3, §4
as §5, with “Corporation). […]” for “Corporation).”

[8] = biological target: T8, Candida antarctica lipase B (CALB) circularly permuted variant cp150, S150/V149 (Moesziomyces antarcticus, UniProt P41365); assay: Initial rate of hydrolysis of DiFMU octanoate, cp150 (S150/V149)
T8 construct: Pichia pastoris, purified
Description: as §3, §4
as §5, with “Corporation). […]” for “Corporation).”

[9] = biological target: T9, Candida antarctica lipase B (CALB) circularly permuted variant cp44, G44/T43 (Moesziomyces antarcticus, UniProt P41365); assay: Initial rate of hydrolysis of DiFMU octanoate, cp44
T9 construct: Pichia pastoris, purified
Description: as §3, §4, §5

[10] = biological target: T2, Candida antarctica lipase B (CALB) circularly permuted variant cp144, His-L144/A141; assay: Initial rate of hydrolysis of pNB, cp144 (His)
Description: as §3, §4, §5

[11] = biological target: T6, Candida antarctica lipase B (CALB) circularly permuted variant cp148a, A148/L147; assay: Initial rate of hydrolysis of pNB, cp148a
Description: as §3, §4
as §5, with “Corporation). […]” for “Corporation).”

[12] = biological target: T7, Candida antarctica lipase B (CALB) circularly permuted variant cp144a, L144/A141; assay: Initial rate of hydrolysis of pNB, cp144a
Description: as §3, §4
as §5, with “Corporation). […]” for “Corporation).”

[13] = biological target: T8, Candida antarctica lipase B (CALB) circularly permuted variant cp150, S150/V149; assay: Initial rate of hydrolysis of pNB, cp150 (S150/V149)
Description: as §3, §4
as §5, with “Corporation). […]” for “Corporation).”

[14] = biological target: T5, Candida antarctica lipase B (CALB) circularly permuted variant cp148, His-A148/L147; assay: Initial rate of hydrolysis of pNB, cp148 (His)
Description: as §3, §4, §5

[15] = biological target: T10, Candida antarctica lipase B (CALB) circularly permuted variant cp150, His-S150/V149 (Moesziomyces antarcticus, UniProt P41365); assay: Initial rate of hydrolysis of pNB, cp150 (His)
T10 construct: Pichia pastoris, purified
Description: as §3, §4, §5

[16] = biological target: T1, Candida antarctica lipase B (CALB), wild type, SEQ ID NO: 2, L1/P317; assay: Initial rate of hydrolysis of p-nitrophenol butyrate (pNB), wild type; details: kcat/KM (variant)/kcat/KM (wild type)
Description: as §1, §2

[17] = biological target: T3, Candida antarctica lipase B (CALB) circularly permuted variant cp268, P268/T267; assay: Initial rate of hydrolysis of pNB, cp268
Description: as §3, §4, §5, §6

[18] = biological target: T9, Candida antarctica lipase B (CALB) circularly permuted variant cp44, G44/T43; assay: Initial rate of hydrolysis of pNB, cp44
Description: as §3, §4, §5

[19] = 50 mM K-phosphate pH 7.0, room temperature
[20] = kcat/KM (variant)/kcat/KM (wild type)
[21] = 50 mM K-phosphate pH 7.5, room temperature

`CCCCCCCC(=O)Oc1c(F)cc2c(C)cc(=O)oc2c1F` [DiFMU octanoate, 6,8-difluoro-4-methylumbelliferyl octanoate] showed a relative specificity [1] of 1.0, a Km [2, 19] of 2000 ± 500 nM and a relative specificity [2, 20] of 0.6. The kcat ([2]; pH 7.0, room temperature) was 1 ± 0.1 min⁻¹, the kcat/KM ([2]; pH 7.0, room temperature) was 0.5 min⁻¹ µM⁻¹ and the Km [3, 19] was 2300 ± 300 nM. It also gave a relative specificity [3, 20] of 15.6, a kcat ([3]; pH 7.0, room temperature) of 28.8 ± 1.1 min⁻¹ and a kcat/KM ([3]; pH 7.0, room temperature) of 12.5 min⁻¹ µM⁻¹. It also gave a Km [4, 19] of 2700 ± 800 nM, a relative specificity [4, 20] of 1.0 and a kcat ([4]; pH 7.0, room temperature) of 2.1 ± 0.2 min⁻¹. The kcat/KM ([4]; pH 7.0, room temperature) was 0.8 min⁻¹ µM⁻¹, the Km [5, 19] was 3.5 ± 0.5 µM and the relative specificity [5, 20] was 0.4. For the same compound, the kcat ([5]; pH 7.0, room temperature) was 1.5 ± 0.2 min⁻¹, the kcat/KM ([5]; pH 7.0, room temperature) was 0.35 min⁻¹ µM⁻¹ and the Km [6, 19] was 6.1 ± 0.7 µM. For the same compound, the relative specificity [6, 20] was 0.7, the kcat ([6]; pH 7.0, room temperature) was 3.5 ± 0.2 min⁻¹ and the kcat/KM ([6]; pH 7.0, room temperature) was 0.57 min⁻¹ µM⁻¹. It also gave a Km [7, 19] of 3 ± 0.3 µM, a relative specificity [7, 20] of 0.6 and a kcat ([7]; pH 7.0, room temperature) of 1.5 ± 0.1 min⁻¹. It also gave a kcat/KM ([7]; pH 7.0, room temperature) of 0.5 min⁻¹ µM⁻¹, a Km [8, 19] of 5.5 ± 0.9 µM and a relative specificity [8, 20] of 0.5. It also gave a kcat ([8]; pH 7.0, room temperature) of 2.2 ± 0.2 min⁻¹, a kcat/KM ([8]; pH 7.0, room temperature) of 0.4 min⁻¹ µM⁻¹ and a Km [9, 19] of 5.6 ± 0.8 µM. It also gave a relative specificity [9, 20] of 0.13, a kcat ([9]; pH 7.0, room temperature) of 0.5 ± 0.05 min⁻¹ and a kcat/KM ([9]; pH 7.0, room temperature) of 0.1 min⁻¹ µM⁻¹.
With `CCCC(=O)Oc1ccc([N+](=O)[O-])cc1` [pNB, p-Nitrophenyl butyrate] the Km [10, 21] was 550 ± 50 µM, the relative specificity [10, 20] was 0.4 and the kcat ([10]; pH 7.5, room temperature) was 178 ± 7 min⁻¹. For the same compound, the kcat/KM ([10]; pH 7.5, room temperature) was 0.32 min⁻¹ µM⁻¹, the Km [11, 21] was 550 ± 70 µM and the relative specificity [11, 20] was 1.2. For the same compound, the kcat ([11]; pH 7.5, room temperature) was 481 ± 29 min⁻¹, the kcat/KM ([11]; pH 7.5, room temperature) was 0.87 min⁻¹ µM⁻¹ and the Km [12, 21] was 820 ± 100 µM. It also gave a relative specificity [12, 20] of 0.7, a kcat ([12]; pH 7.5, room temperature) of 435 ± 28 min⁻¹ and a kcat/KM ([12]; pH 7.5, room temperature) of 0.53 min⁻¹ µM⁻¹. For the same compound, the Km [13, 21] was 425 ± 50 µM, the relative specificity [13, 20] was 1.1 and the kcat ([13]; pH 7.5, room temperature) was 347 ± 16 min⁻¹. The kcat/KM ([13]; pH 7.5, room temperature) was 0.82 min⁻¹ µM⁻¹, the Km [14, 21] was 500 ± 30 µM and the relative specificity [14, 20] was 0.5. It also gave a kcat ([14]; pH 7.5, room temperature) of 171 ± 4 min⁻¹, a kcat/KM ([14]; pH 7.5, room temperature) of 0.34 min⁻¹ µM⁻¹ and a Km [15, 21] of 510 ± 90 µM. The relative specificity [15, 20] was 1.4, the kcat ([15]; pH 7.5, room temperature) was 520 ± 45 min⁻¹ and the kcat/KM ([15]; pH 7.5, room temperature) was 1.02 min⁻¹ µM⁻¹. For the same compound, the relative specificity [16] was 1.0, the Km [17, 21] was 580 ± 90 µM and the relative specificity [17, 20] was 7.1. The kcat ([17]; pH 7.5, room temperature) was 3051 ± 229 min⁻¹, the kcat/KM ([17]; pH 7.5, room temperature) was 5.26 min⁻¹ µM⁻¹ and the Km [18, 21] was 690 ± 90 µM. It also gave a relative specificity [18, 20] of 0.01, a kcat ([18]; pH 7.5, room temperature) of 6 ± 0.5 min⁻¹ and a kcat/KM ([18]; pH 7.5, room temperature) of 0.01 min⁻¹ µM⁻¹.
